The values below come from patent US20100196907A1, “MARKERS TO PREDICT AND MONITOR RESPONSE TO AURORA KINASE B INHIBITOR THERAPY” (ABBOTT LABORATORIES, priority 2009, published 2010).

For data set [1], the system named is HCT-15 colon carcinoma xenografts. Kind of data set: xenograft growth, HCT-15. The format is in vivo, mice.
Data set [2] relates to DoHH-2 B-cell lymphoma xenografts. Kind of data set: xenograft growth, DoHH-2. It counts as in vivo, mice.
The next data set has as its system HCT116. Kind of data set: xenograft growth, HCT116. The format is in vivo, mice.
In the next data set the test system is cell line panel. Kind of data set: 7-day colony formation or viability, cell line panel. As to conditions: sensitive vs ABCB1-overexpressing lines. It counts as cell-based, human. On the procedure:
(§1) SW620^ABCB1/3 and the respective parental cell lines were washed and 500 cells/well were seeded into six-well plates in drug-free medium. Then, 24 hours later, compounds were diluted in DMEM or RPMI, added to the cells, which were cultured at 37° C. for 7-10 days. Cells were then fixed and stained with 0.2% crystal violet to visualize and count colonies.

A further data set has as its system SW620^ABCB1/3 cells. Kind of data set: histone H3 phosphorylation immunoblot, SW620^ABCB1/3. As to conditions: 1 μM PSC-833 for 2 hours prior to AZD1152 HQPA. It counts as cell-based, human. On the procedure: SW620 and SW620^ABCB1/3 cells were washed and allowed to grow in drug-free medium overnight. […] The lysates were then probe-sonicated for 10 seconds then clarified by centrifugation at 15,000 g for 15 minutes at 4° C. After treatment with SDS-sample buffer, protein extracts were resolved on NuPAGE Bis-Tris 4-12% gels (Invitrogen (Carlsbad, Calif.)). Samples were electrotransferred to PVDF membranes (Invitrogen (Carlsbad, Calif.)), incubated with primary antibody overnight, and developed using Pierce Dura-Signal chemiluminescence reagents (Pierce, Rockford, Ill.), or Odyssey infrared imaging system from LI-COR Biosciences (Lincoln, Nebr.).

Another data set deals with bone marrow. As to conditions: cited from earlier work.
For data set [3] the following is noted: human plasma; cited from earlier work.
Another data set relates to SW620^ABCB1/3. Kind of data set: colony formation, SW620^ABCB1/3. The format is cell-based, human. On the procedure:
as §1

The subject of the next data set is AsPC1. Kind of data set: colony formation, AsPC1. The format is cell-based, human.
Another data set relates to HCT-15. Kind of data set: colony formation, HCT-15. The format is cell-based, human.

For the molecule `Cc1cc(Nc2cc(N3CCN(C)CC3)nc(Sc3ccc(NC(=O)C4CC4)cc3)n2)[nH]n1` [VX-680, cyclopropane carboxylic acid {4-[4-(4-methyl-piperazin-1-yl)-6-(5-methyl-2H-pyrazol-3-ylamino)-pyrimidin-2-ylsulphanyl]-phenyl}-amide], in data set [1], the “xenograft growth under treatment” value is listed as “unabated”. Moreover, the tumor growth inhibition entry (in data set [2]; in the data set with HCT116) was “significant tumor growth inhibition” each time.

For `O=C(O)c1ccc(Nc2ncc3c(n2)-c2ccc(Cl)cc2C(c2c(F)cccc2F)=NC3)cc1` [MLN8054, 4-{[9-choloro-7-(2,6-difluorophenyl)-5H-pyrimido[5,4-D][2]benzazepin-2-yl]amino}-benzoic acid], in the data set on cell line panel, the “activity profile in the cell line panel” value is “No apparent loss in potency”.

For the molecule `C/C=C/C[C@@H](C)C(=O)[C@H]1C(=O)N[C@@H](C(C)C)C(=O)N(C)CC(=O)N(C)[C@@H](CC(C)C)C(=O)N[C@@H](C(C)C)C(=O)N(C)[C@@H](CC(C)C)C(=O)N[C@@H](C)C(=O)N[C@H](C)C(=O)N(C)[C@@H](CC(C)C)C(=O)N(C)[C@@H](CC(C)C)C(=O)N(C)[C@@H](C(C)C)C(=O)N1C` [PSC-833], the “reversal of resistance to AZD1152 HQPA” value in the data set with SW620^ABCB1/3 cells is given as “effective in reversing the resistance”.

Regarding `CCN(CCCOc1ccc2c(Nc3cc(CC(=O)Nc4cccc(F)c4)n[nH]3)ncnc2c1)CCOP(=O)(O)O` [AZD1152, 2-[[3-({4-[(5-{2-[(3-Fluorophenyl)amino]-2-oxoethyl}-1H-pyrazol-3-yl)amino]-quinazolin-7-yl}oxy)propyl](ethyl)amino)ethyl dihydrogen phosphate], the reversibility of myelosuppression result in the data set on bone marrow (following cessation of AZD1152 treatment) is given as “fully reversible”. In addition, the myelosuppression entry with bone marrow (secondary to inhibition of proliferation of the bone marrow) is “transient myelosuppression”. Besides, the “conversion of prodrug to active drug” value in [3] was “rapidly converted to the active drug”.

Turning to `CC(=O)O[C@H]1C(=O)[C@@]2(C)[C@H]([C@H](OC(=O)c3ccccc3)[C@]3(O)C[C@H](OC(=O)[C@H](O)[C@@H](NC(=O)c4ccccc4)c4ccccc4)C(C)=C1C3(C)C)[C@]1(OC(C)=O)CO[C@@H]1C[C@@H]2O` [paclitaxel], the values for the relative sensitivity result in the data set with SW620^ABCB1/3, with AsPC1 and in the data set with HCT-15 were “relatively insensitive”, “not AsPC1 were relatively insensitive” and “relatively insensitive”, respectively.
